Common to all, as to experiment: relative viability (nuclei count vs DMSO), 5 days (fraction); higher = more cells survive
Compound in assay [1]: COc1cc2ncn(-c3cc(OCc4ccccc4C(F)(F)F)c(C(N)=O)s3)c2cc1OC + CC(=O)c1c(C)c2cnc(Nc3ccc(N4CCNCC4)cn3)nc2n(C2CCCC2)c1=O [Palbociclib] (partner 0.5 µM)
The method in brief: (§1)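 One day after seeding in 1536-well plates, lung cancer cell lines were dosed by pin tool. Dosing was either single-drug or a fixed anchor-drug dose plus five library-drug doses (not always all listed) in √10 steps. After 5 days, nuclei were stained in one fix-and-stain step and counted on 4× images, and relative viability is the nuclei count of treated wells over that of vehicle wells, given as the median of duplicate plates.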

Compound in assay [2]: COc1cc2ncn(-c3cc(OCc4ccccc4C(F)(F)F)c(C(N)=O)s3)c2cc1OC + CS(=O)(=O)N1CCN(Cc2cc3nc(-c4cccc5[nH]ncc45)nc(N4CCOCC4)c3s2)CC1 [Pictilisib] (partner 1 µM)
The method in brief: as §1

Compound in assay [3]: COc1cc2ncn(-c3cc(OCc4ccccc4C(F)(F)F)c(C(N)=O)s3)c2cc1OC + N=C(N)NC(=N)NCCc1ccccc1 [Phenformin] (partner 250 µM)
The method, boiled down:
as §1

Compound in assay [4]: COc1cc2ncn(-c3cc(OCc4ccccc4C(F)(F)F)c(C(N)=O)s3)c2cc1OC + Nc1ncn([C@H]2C[C@H](O)[C@@H](CO)O2)c(=O)n1 [Decitabine] (partner 2 µM)
The method, boiled down: as §1

Take NCI-H2023: the relative viability in assay [1] (first compound 0.05 µM) worked out at 0.397; in assay [1] (first compound 0.1581 µM), 0.41; in assay [1] (first compound 0.5 µM), 0.265; in assay [1] (first compound 1.581 µM), 0.0834; in assay [1] (first compound 5 µM), 0.0792; in assay [2] (first compound 0.05 µM) it was 0.228. In addition, the relative viability worked out at 0.287 in assay [2] (first compound 0.1581 µM); 0.196 in assay [2] (first compound 0.5 µM); 0.12 in assay [2] (first compound 1.581 µM); 0.0888 in assay [2] (first compound 5 µM); 0.328 in assay [3] (first compound 0.05 µM); 0.395 in assay [3] (first compound 0.1581 µM). The relative viability in assay [3] (first compound 0.5 µM) worked out at 0.229; in assay [3] (first compound 1.581 µM) it was 0.0904; in assay [3] (first compound 5 µM), 0.0857; in assay [4] (first compound 0.05 µM), 0.203; in assay [4] (first compound 0.1581 µM), 0.213; in assay [4] (first compound 0.5 µM), 0.159. In addition, the relative viability in assay [4] (first compound 1.581 µM) came to 0.0779; in assay [4] (first compound 5 µM), 0.0772.
Regarding COR-L 105, the relative viability in assay [1] (first compound 0.05 µM) stood at 0.396; in assay [1] (first compound 0.1581 µM), 0.4; in assay [1] (first compound 0.5 µM) it was 0.424; in assay [1] (first compound 1.581 µM), 0.325; in assay [1] (first compound 5 µM), 0.321; in assay [2] (first compound 0.05 µM), 0.475. Also, the relative viability worked out at 0.386 in assay [2] (first compound 0.1581 µM); 0.267 in assay [2] (first compound 0.5 µM); 0.279 in assay [2] (first compound 1.581 µM); 0.259 in assay [2] (first compound 5 µM); 0.426 in assay [3] (first compound 0.05 µM); 0.441 in assay [3] (first compound 0.1581 µM). Besides, the relative viability was 0.353 in assay [3] (first compound 0.5 µM); 0.29 in assay [3] (first compound 1.581 µM); 0.221 in assay [3] (first compound 5 µM); 0.65 in assay [4] (first compound 0.05 µM); 0.601 in assay [4] (first compound 0.1581 µM); 0.572 in assay [4] (first compound 0.5 µM). For the same cell line, the relative viability in assay [4] (first compound 1.581 µM) was 0.438; in assay [4] (first compound 5 µM), 0.278.
On to NCI-H1734, for which the relative viability is 0.315 in assay [1] (first compound 0.05 µM); 0.334 in assay [1] (first compound 0.1581 µM); 0.325 in assay [1] (first compound 0.5 µM); 0.203 in assay [1] (first compound 1.581 µM); 0.171 in assay [1] (first compound 5 µM); 0.493 in assay [2] (first compound 0.05 µM). Moreover, the relative viability in assay [2] (first compound 0.1581 µM) worked out at 0.48; in assay [2] (first compound 0.5 µM), 0.409; in assay [2] (first compound 1.581 µM), 0.206; in assay [2] (first compound 5 µM), 0.172; in assay [3] (first compound 0.05 µM), 0.417; in assay [3] (first compound 0.1581 µM), 0.329. For the same cell line, the relative viability came out at 0.322 in assay [3] (first compound 0.5 µM); 0.18 in assay [3] (first compound 1.581 µM); 0.121 in assay [3] (first compound 5 µM); 0.382 in assay [4] (first compound 0.05 µM); 0.588 in assay [4] (first compound 0.1581 µM); 0.469 in assay [4] (first compound 0.5 µM). Besides, the relative viability in assay [4] (first compound 1.581 µM) came to 0.214; in assay [4] (first compound 5 µM), 0.157.
NCI-H3122: the relative viability in assay [1] (first compound 0.05 µM) worked out at 0.189; in assay [1] (first compound 0.1581 µM), 0.202; in assay [1] (first compound 0.5 µM) it was 0.148; in assay [1] (first compound 1.581 µM), 0.14; in assay [1] (first compound 5 µM) it was 0.13; in assay [2] (first compound 0.05 µM) it was 0.578. Also, the relative viability was determined as 0.269 in assay [2] (first compound 0.1581 µM); 0.282 in assay [2] (first compound 0.5 µM); 0.212 in assay [2] (first compound 1.581 µM); 0.184 in assay [2] (first compound 5 µM); 0.362 in assay [3] (first compound 0.05 µM); 0.37 in assay [3] (first compound 0.1581 µM). For the same cell line, the relative viability in assay [3] (first compound 0.5 µM) was 0.16; in assay [3] (first compound 1.581 µM) it was 0.143; in assay [3] (first compound 5 µM), 0.128; in assay [4] (first compound 0.05 µM), 0.373; in assay [4] (first compound 0.1581 µM) it was 0.426; in assay [4] (first compound 0.5 µM), 0.193. The values for the relative viability in assay [4] (first compound 1.581 µM) and in assay [4] (first compound 5 µM) were 0.14 and 0.103, respectively.
As to HCC-78, the relative viability in assay [1] (first compound 0.05 µM) worked out at 0.497; in assay [1] (first compound 0.1581 µM), 0.478; in assay [1] (first compound 0.5 µM), 0.435; in assay [1] (first compound 1.581 µM), 0.406; in assay [1] (first compound 5 µM) it was 0.357; in assay [2] (first compound 0.05 µM), 0.221. The relative viability in assay [2] (first compound 0.1581 µM) was 0.188; in assay [2] (first compound 0.5 µM), 0.186; in assay [2] (first compound 1.581 µM), 0.206; in assay [2] (first compound 5 µM) it was 0.186; in assay [3] (first compound 0.05 µM), 0.851; in assay [3] (first compound 0.1581 µM), 0.837. For the same cell line, the relative viability in assay [3] (first compound 0.5 µM) worked out at 0.495; in assay [3] (first compound 1.581 µM), 0.446; in assay [3] (first compound 5 µM), 0.22; in assay [4] (first compound 0.05 µM), 0.688; in assay [4] (first compound 0.1581 µM) it was 0.652; in assay [4] (first compound 0.5 µM), 0.671. Further, the relative viability in assay [4] (first compound 1.581 µM) turned out to be 0.473; in assay [4] (first compound 5 µM) it was 0.446.
For NCI-H2085, the relative viability amounted to 0.423 in assay [1] (first compound 0.05 µM); 0.476 in assay [1] (first compound 0.1581 µM); 0.488 in assay [1] (first compound 0.5 µM); 0.38 in assay [1] (first compound 1.581 µM); 0.244 in assay [1] (first compound 5 µM); 0.47 in assay [2] (first compound 0.05 µM). In addition, the relative viability in assay [2] (first compound 0.1581 µM) is 0.45; in assay [2] (first compound 0.5 µM) it was 0.463; in assay [2] (first compound 1.581 µM) it was 0.273; in assay [2] (first compound 5 µM) it was 0.273; in assay [3] (first compound 0.05 µM), 0.719; in assay [3] (first compound 0.1581 µM), 0.725. For the same cell line, the relative viability in assay [3] (first compound 0.5 µM) was 0.367; in assay [3] (first compound 1.581 µM), 0.234; in assay [3] (first compound 5 µM), 0.251; in assay [4] (first compound 0.05 µM) it was 0.508; in assay [4] (first compound 0.1581 µM), 0.502; in assay [4] (first compound 0.5 µM), 0.431. For the same cell line, the relative viability is 0.36 in assay [4] (first compound 1.581 µM) and 0.363 in assay [4] (first compound 5 µM).

The values are drawn from the supplement of paper PMC10307832.
